Reference: paper PMC9572083, “Hybrids of 1,4-Quinone with Quinoline Derivatives: Synthesis, Biological Activity, and Molecular Docking with DT-Diaphorase (NQO1)” (Molecules, 2022)

How the values were obtained:
[1] = biological target: T1, NQO1 (DT-diaphorase, EC 1.6.5.5, human recombinant) (Homo sapiens, UniProt P15559); assay: NQO1 substrate NADPH recycling enzymatic assay; type: biochemical; conditions: for NQO1 activity (enzymatic conversion rate): compound 10 µmol/L, pH 7.4, 25 °C, absorbance at 340 nm
T1 construct: purchased Sigma-Aldrich
Experimental: The interaction between 1,4-quinone moiety of hybrid and NQO1 protein leads to reduction in quinone to hydroquinone and production of reactive oxide form (ROS). According to a literature method, the ability of hybrids 11–14 and streptonigrin (ST) to be a substrate for NQO1 was examined by measuring the oxidation of NADPH to NADP^+ [29, 32].
Compounds 11–14 (10 µmol/L) were tested as NQO1 substrates using the NADPH recycling assay according to the literature method. The recombinant NQO1 (DT-diaphorase, EC 1.6.5.5, human recombinant, Sigma-Aldrich) was used, and the oxidation of NADPH to NADP^+ was measured at the absorption wavelength of 340 nm on the BioTek 800TS microplate reader (BioKom, Janki, Poland). Compounds were dissolved in dimethyl sulfoxide (2 µL) and added to the 96-well plate. The NQO1 protein (1.4 µg/mL) in 50 mmol/L potassium phosphate buffer (pH = 7.4) was added to each well (198 µL) (Nunc Thermo Fisher Scientific, Waltham, MA, USA). Once the 96-well plate was filled with the assay solutions, except the NADPH solution, it was placed into the instrument and left to sit for 5 min before starting the measurements. The enzymatic reaction was initiated by automatically dispensing the NADPH solution into the wells, and data were recorded at 10 s intervals for 5 min at 25 °C. The linear part of the absorbance vs. time graphs (the first 20 s to 1 min) was fitted, and the slopes were calculated. NADPH oxidation rates were compared with reactions lacking the tested compound. Initial velocities were calculated, and data were expressed as µmol NADPH/µmol NQO1/min. All reactions were carried out at least in triplicate.

Colo-829 cells = assay: Cytotoxic activity, WST-1 assay, melanoma Colo-829; type: cell-based, human; conditions: for SI (IC50 HFF-1/IC50 cancer line) Colo-829: HFF-1 vs Colo-829; for IC50: Homo sapiens, melanoma Colo-829, 72 h, WST-1
From the text: (§1) Anticancer activity of compounds 11–14 was designated against following human cancer cell lines: melanoma (Colo-829), ovarian cancer (SK-OV-3), breast cancer (MDA-MB-231, T47D and MCF-7), lung cancer (A549) and normal fibroblasts (HFF-1). As a reference substance, the doxorubicin was used. The results are presented in Table 1 as IC50, where IC50 means the concentration of tested compounds (µM) causing the growth inhibition of 50% for given tumor cells. The negative value (Neg.) means that the IC50 is higher than 30 µM. Selectivity index (SI) as the ratio of the IC50 for normal fibroblast (HFF-1) to IC50 of the corresponding cell line, is presented in Table S2.
(§2) Compounds 7–14 and doxorubicin were tested for cytotoxic activity in vitro against panel of human cancer cell lines: melanoma (Colo-829, ATCC, Rockville, MD, USA), ovarian cancer (SK-OV-3, ATCC, Rockville, MD, USA), breast cancer (T47D, MCF-7, and MDA-MB-231, ATCC, Rockville, MD, USA) and lung cancer (A549, ATCC, Rockville, MD, USA). The cultured cells were kept at 37 °C and 5% CO2. The cells were seeded (5 × 10^4 cells/well/[…] DMEM supplemented with 10% FCS and streptomycin/penicillin) using 96-well plates (Nunc Thermo Fisher Scientific, Waltham, MA, USA). The tested compounds 7–14 with the concentration of 1–100 µg/mL DMSO were inducted with the cancer cells for 72 h. The WST-1-formazan (proliferation reagent WST-1 assay, Roche Diagnostics, Mannheim, Germany) was detected using a microplate reader at 450 nm. Results were expressed as a mean value of at least three independent experiments performed in triplicate.

SK-OV-3 cells = assay: Cytotoxic activity, WST-1 assay, ovarian cancer SK-OV-3; type: cell-based, human; conditions: for SI (IC50 HFF-1/IC50 cancer line) SK-OV-3: HFF-1 vs SK-OV-3; for IC50: Homo sapiens, ovarian cancer SK-OV-3, 72 h, WST-1
From the text: as §1, §2

MDA-MB-231 cells = assay: Cytotoxic activity, WST-1 assay, breast cancer MDA-MB-231; type: cell-based, human; conditions: for SI (IC50 HFF-1/IC50 cancer line) MDA-MB-231: HFF-1 vs MDA-MB-231; for IC50: Homo sapiens, breast cancer MDA-MB-231, 72 h, WST-1
From the text: as §1, §2

T47D cells = assay: Cytotoxic activity, WST-1 assay, breast cancer T47D; type: cell-based, human; conditions: for SI (IC50 HFF-1/IC50 cancer line) T47D: HFF-1 vs T47D; for IC50: Homo sapiens, breast cancer T47D, 72 h, WST-1
From the text: as §1, §2

MCF-7 cells = assay: Cytotoxic activity, WST-1 assay, breast cancer MCF-7; type: cell-based, human; conditions: for SI (IC50 HFF-1/IC50 cancer line) MCF-7: HFF-1 vs MCF-7; for IC50: Homo sapiens, MCF7, breast cancer MCF-7, 72 h, WST-1
From the text: as §1, §2

A549 cells = assay: Cytotoxic activity, WST-1 assay, lung cancer A549; type: cell-based, human; conditions: for SI (IC50 HFF-1/IC50 cancer line) A549: HFF-1 vs A549; for IC50: Homo sapiens, lung cancer A549, 72 h, WST-1
From the text: as §1, §2

HFF-1 cells = assay: Cytotoxic activity, WST-1 assay, normal fibroblasts HFF-1; type: cell-based; conditions: Homo sapiens, normal fibroblasts HFF-1, 72 h
From the text: as §1, §2

T1 sequence (P15559 whole entry): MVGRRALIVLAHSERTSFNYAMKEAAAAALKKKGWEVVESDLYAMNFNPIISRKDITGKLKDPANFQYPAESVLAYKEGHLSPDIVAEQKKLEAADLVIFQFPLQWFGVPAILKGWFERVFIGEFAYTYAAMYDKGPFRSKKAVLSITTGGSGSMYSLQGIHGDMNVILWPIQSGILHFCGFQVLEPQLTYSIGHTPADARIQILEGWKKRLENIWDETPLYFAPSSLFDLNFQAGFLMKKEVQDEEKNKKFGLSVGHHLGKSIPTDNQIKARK

SMILES | NQO1 activity (enzymatic conversion rate) [1] [µmol NADPH/µmol NQO1/min] | SI (IC50 HFF-1/IC50 cancer line) Colo-829 (Colo-829 cells) | IC50 (Colo-829 cells) [µM] | SI (IC50 HFF-1/IC50 cancer line) SK-OV-3 (SK-OV-3 cells) | IC50 (SK-OV-3 cells) [µM] | SI (IC50 HFF-1/IC50 cancer line) MDA-MB-231 (MDA-MB-231 cells) | IC50 (MDA-MB-231 cells) [µM] | SI (IC50 HFF-1/IC50 cancer line) T47D (T47D cells) | IC50 (T47D cells) [µM] | SI (IC50 HFF-1/IC50 cancer line) MCF-7 (MCF-7 cells) | IC50 (MCF-7 cells) [µM] | SI (IC50 HFF-1/IC50 cancer line) A549 (A549 cells) | IC50 (A549 cells) [µM] | IC50 (HFF-1 cells) [µM] | melting point [°C] | Enzymatic conversion rate relative to streptonigrin ([1]; fold higher than streptonigrin)
Cc1ccc2c(n1)C(=O)C(Oc1cccc3cccnc13)=C(Cl)C2=O [Compound 12a, 6-chloro-2-methyl-7-(quinolin-8-yloxy)quinoline-5,8-dione] | 1505 ± 54 | 11.41 | 1.52 ± 0.35 | 346.80 | 0.05 ± 0.02 | 8.80 | 1.97 ± 0.15 | 10.91 | 1.59 ± 0.15 | 8.30 | 2.09 ± 0.02 | 20.40 | 0.85 ± 0.04 | 17.3 ± 0.89 | 115 to 117 | –
O=Cc1ccc2cccc(OC3=C(Cl)C(=O)c4ccccc4C3=O)c2n1 [Compound 14c, 8-[(3-chloro-1,4-dioxo-1,4-dihydronaphthalen-2-yl)oxy]quinoline-2-carbaldehyde] | 550 ± 62 | – | > 30 | 71.84 | 0.25 ± 0.06 | 0.71 | 25.1 ± 0.97 | 11.09 | 1.62 ± 0.21 | – | > 30 | 43.80 | 0.41 ± 0.06 | 18 ± 1.75 | 131 to 133 | –
O=Cc1ccc2cccc(OC3=C(Cl)C(=O)c4cccnc4C3=O)c2n1 [Compound 11c, 8-[(6-chloro-5,8-dioxo-5,8-dihydroquinolin-7-yl)oxy]quinoline-2-carbaldehyde] | 1100 ± 35 | 0.90 | 11.7 ± 1.36 | 5.91 | 1.78 ± 0.31 | 0.73 | 14.3 ± 2.01 | 0.47 | 22.2 ± 0.66 | 0.57 | 18.3 ± 1.23 | 7.26 | 1.45 ± 0.13 | 10.5 ± 0.87 | 168 to 170 | –
O=C1C(Cl)=C(Oc2cccc3cccnc23)C(=O)c2ncccc21 [Compound 11a, 6-chloro-7-(quinolin-8-yloxy)quinoline-5,8-dione] | 1399 ± 26 | 0.55 | 18.5 ± 1.31 | 6.59 | 1.55 ± 0.2 | 0.89 | 11.5 ± 0.19 | 0.55 | 18.7 ± 0.71 | 0.53 | 19.4 ± 0.37 | 6.08 | 1.68 ± 0.05 | 10.2 ± 0.16 | 112 to 114 | about 2 times
O=C1C(Cl)=C(Oc2cccc3ccc(Cl)nc23)C(=O)c2cnccc21 [Compound 13d, 6-chloro-7-[(2-chloroquinolin-8-yl)oxy]isoquinoline-5,8-dione] | 633 ± 32 | 5.66 | 1.96 ± 0.08 | 0.65 | 17.1 ± 1.76 | 6.64 | 1.67 ± 0.11 | – | > 30 | 6.34 | 1.75 ± 0.19 | 184.83 | 0.06 ± 0.01 | 11.1 ± 1.07 | 127 to 129 | –
Cc1ccc2c(n1)C(=O)C(Oc1cccc3ccc(C=O)nc13)=C(Cl)C2=O [Compound 12c, 8-[(6-chloro-2-methyl-5,8-dioxo-5,8-dihydroquinolin-7-yl)oxy]quinoline-2-carbaldehyde] | 470 ± 22 | 1.23 | 14.6 ± 0.51 | 8.28 | 2.16 ± 0.19 | 0.85 | 21.12 ± 0.11 | 0.77 | 23.3 ± 1.12 | 0.94 | 19.1 ± 0.95 | 5.70 | 3.14 ± 0.43 | 17.9 ± 1.37 | 184 to 186 | –
O=C1C(Cl)=C(Oc2cccc3cccnc23)C(=O)c2ccccc21 [Compound 14a, 2-chloro-3[(quinolin-8-yl)oxy]naphthalene-1,4-dione] | 1282 ± 29 | 0.84 | 15.3 ± 2.56 | 7.54 | 1.7 ± 0.29 | 0.84 | 15.2 ± 0.85 | – | > 30 | 0.91 | 14.1 ± 0.98 | 19.71 | 0.65 ± 0.07 | 12.8 ± 0.85 | 115 to 117 | –
O=C1C(Cl)=C(Oc2cccc3ccc(Cl)nc23)C(=O)c2ncccc21 [Compound 11d, 6-chloro-7-[(2-chloroquinolin-8-yl)oxy]quinoline-5,8-dione] | 800 ± 64 | 9.48 | 1.45 ± 0.24 | 8.81 | 1.56 ± 0.11 | 6.77 | 2.03 ± 0.05 | 6.54 | 2.1 ± 0.11 | 6.51 | 2.11 ± 0.09 | 8.04 | 1.71 ± 0.03 | 13.7 ± 1.27 | 123 to 125 | –
O=C1C(Cl)=C(Oc2cccc3cccnc23)C(=O)c2cnccc21 [Compound 13a, 6-chloro-7-(quinolin-8-yloxy)isoquinoline-5,8-dione] | 1210 ± 23 | 162.88 | 0.17 ± 0.02 | 60.20 | 0.46 ± 0.02 | 27.15 | 1.02 ± 0.15 | 307.67 | 0.09 ± 0.04 | 23.87 | 1.16 ± 0.15 | 923.00 | 0.03 ± 0.01 | 27.7 ± 0.7 | 86 to 88 | –
